Laboratory results: US20200121579A1, “TOPICAL COMPOSITIONS” (DSM IP ASSETS B.V., priority 2017, published 2020)

Assays:
[1] = system: Propionibacterium acnes; assay: Antimicrobial efficacy in analogy to challenge test NF EN ISO11930, P. acnes; type: cell-based; details: 0.1 wt.-% single active; for Propionibacterium acnes colony count: 24 h after contamination, 22° C., initial count 310000 cfu/ml
From the text: The wells are contaminated with either Propionibacterium acnes or Escherichia coli at 2.5*10^5 to 5.6*10^5 cfu/ml to obtain the initial contamination as outlined in table 1. […] (The term “Log reduction” is a well-known mathematical term used to show the relative number of cells, germs, microbes, etc., reduced in or on something, e.g. a 2 log reduction means the number of microbes is 100 times smaller and a 3 log reduction means the number of microbes is 1000 times smaller).

[2] = system: Escherichia coli; assay: Antimicrobial efficacy in analogy to challenge test NF EN ISO11930, E. coli; type: cell-based; details: 0.1 wt.-% single active; for Escherichia coli colony count: 24 h after contamination, 22° C., initial count 250000 cfu/ml
From the text: The wells are contaminated with either Propionibacterium acnes or Escherichia coli at 2.5*10^5 to 5.6*10^5 cfu/ml to obtain the initial contamination as outlined in table 1.

Row | SMILES | Propionibacterium acnes colony count [1] [cfu/ml] | Log reduction ([1]; 24 h vs 0 h) | Δ (change of microorganism count t = 24 h vs t = 0) [2] | Escherichia coli colony count [2] [cfu/ml]
1 | CC(=O)OC/C=C(C)/C=C/C=C(C)/C=C/C1=C(C)CCCC1(C)C [retinyl acetate] | 3000 | 2 | +112% | 530000
2 | O=C(CO)[C@H](O)CO (racemic) [erythrulose] | 3000 |  | +112% | 530000
